“And” between values parts separate entries of the source, which are not always exact repeats. Identical values can stand only once. Like-named read-outs stand apart in the source and are kept apart here.
Columns and labels:
CPP2 = assay: Competitive 18F-NaF binding assay on CPPs; design: species or system human; settings: for IC50: CPP2 20 µg Ca/mL, 18F-NaF 1 nM, 1 h RT, read-out: IC50 (reduction of 18F binding to CPP)
Description: A ^18F-NaF-based competitive binding assay was developed to indirectly assess the inhibitor affinity (IC50) to CPPs. The uptake mechanism of ^18F-NaF, a marker of micro-calcification activity by chemisorption onto hydroxyapatite crystals, is contingent on the rapid exchange of hydroxyl (OH^−) groups present on the hydroxyapatite surface (Ca5(PO4)3(OH)) by ^18F^− to form fluoroapatite (Ca5(PO4)3^18F)[34],[54].
Triplicate aliquots of CPP2s (20 µg Ca/mL) in 100 μL assay buffer (100 mM HBS, pH 7.4 (RT)) were incubated for 1 h at RT in the presence of increasing concentrations of compounds in 50 μL Milli-Q water and ^18F-NaF (1 nM) in 50 μL assay buffer, resulting in a total incubation volume of 200 μL (^18F-NaF was prepared using a FASTlab synthesizer (GE Healthcare, Little Chalfont, UK) and commercially available ^18F-NaF cassettes (GE Healthcare)). Maximum radiotracer binding was determined by incubating CPP2s with ^18F-NaF (1 nM) only. The reaction was terminated by rapid filtration through a SOLAμ™ SPE plate (HRP 2 mg/mL 96-well plate, 22 μm; Thermo Fisher Scientific). SPE individual column matrices were washed twice rapidly in assay buffer and radioactivity on the filters determined by an automatic gamma counter (Wizard2 Gamma Counter, Perkin Elmer, Waltham, MA, USA). […] IC50 is the concentration of […] that gives a response half way between the bottom and top parts of the curve. ^18F-NaF micro-PET/computed tomography (micro-PET/CT) was employed for ex vivo analysis of (OEG2)2-IP4’s engagement to target calcified human tissue explants, as described previously. […] Following incubations, samples were washed twice in 0.1 M PBS (1 min per wash) and mounted on a Petri dish for micro-PET/CT imaging (nanoPET/CT, Mediso, Budapest, Hungary). In total, seven samples from the femoral arteries of three patients with ischemic peripheral disease and three samples from native aortic valves of three patients undergoing valve replacement surgery were used. All samples were collected at the time of surgery and stored in 4% paraformaldehyde at RT until further use. All patients gave their written, informed consent. All procedures had local ethical approval (06/S0703/110, 12/WS/0227, 09/S0703/118, and 12/NW/0036). All studies were approved by East and West Scotland Research Ethics Committees, and all experiments were conducted according to the principles expressed in the Declaration of Helsinki.

CPPs = assay: DLS of CPP hydrodynamic diameter in human serum; design: Dh: unit not given here
Description: To confirm the screening assay data, the hydrodynamic diameter of the CPPs was measured by dynamic light scattering (DLS).
Human serum studies were performed under sterile conditions at 37 °C as described previously. […] For serum background measurements, saline, human serum, and 100 mM HBS (pH 7.4 (RT)) were combined in a volume ratio of 2:8:10. […] The mixtures were incubated with continual slow mixing on a rotator (240 rotations/min, IKA KS 130 Basics Orbital Shaker) at 37 °C. After 1, 3, and 5 h of incubation, 500 µL aliquots were drawn under sterile conditions to prevent microorganism growth contamination and subjected to DLS analysis at 37 °C. For each experiment, three replicates were produced and a single measurement per sample and time point was performed.

[1] = VSMC viability (MTS) in high-CaP medium; type: cell-based, human; settings: human, read-out: VSMC viability (MTS), % of medium control; for viability at 5 days, 10 µM: 10 µM in high-CaP medium; for viability at 5 days, 100 µM: 100 µM in high-CaP medium
primary human VSMCs = assay: VSMC viability (MTS) in high-CaP medium; type: cell-based
[2] = Serum calcification propensity assay after 4.5 h incubation in enzymatically active human serum; settings: Fig. 2e; for ΔT50 after 4.5 h vs 0 h incubation in enzymatically active human serum: compound at c350 concentration, 37 °C, individual donors
[3] = 0.01 µM in high-CaP medium, replicates Fig. 3d
[4] = Supl.Fig.4 panel b, time 1 (unit not given)

## COCCOCCO[C@@H]1[C@@H](OP(=O)(O)O)[C@H](OCCOCCOC)[C@@H](OP(=O)(O)O)[C@@H](OP(=O)(O)O)[C@H]1OP(=O)(O)O [(OEG2)2-IP4, 4,6-Di-O-(methoxy-diethyleneglycol)-myo-inositol-1,2,3,5-tetrakis(phosphate)]
CPP2
  IC50: 810 nM
CPP2; as assessed in Fig. 2c, read-out: IC90 (concentration inhibiting 90% 18F-NaF binding)
  IC90: 8.6 µM
CPP2; as used for tissue explants, read-out: IC90
  IC90: 8.55 µM
CPP2; concentration 0.75 (unit not given), listed as INS-3001
  18F-NaF percentage binding to CPP2: 105.464% and 94.9958% and 112.003%
CPP2; concentration 2.5 (unit not given), listed as INS-3001
  18F-NaF percentage binding to CPP2: 107.219% and 104.697% and 115.819%
CPP2; concentration 7.5 (unit not given), listed as INS-3001
  18F-NaF percentage binding to CPP2: 94.1661% and 101.068% and 121.959%
CPP2; concentration 25 (unit not given), listed as INS-3001
  18F-NaF percentage binding to CPP2: 108.675% and 100.128% and 123.491%
CPP2; concentration 75 (unit not given), listed as INS-3001
  18F-NaF percentage binding to CPP2: 113.007% and 98.9202% and 111.871%
CPP2; concentration 250 (unit not given), listed as INS-3001
  18F-NaF percentage binding to CPP2: 85.5215% and 95.9196% and 111.875%
CPP2; concentration 750 (unit not given), listed as INS-3001
  18F-NaF percentage binding to CPP2: 70.0481% and 89.1189% and 102.542%
CPP2; concentration 1750 (unit not given), listed as INS-3001
  18F-NaF percentage binding to CPP2: 31.7703% and 41.2562% and 38.4419%
CPP2; concentration 7500 (unit not given), listed as INS-3001
  18F-NaF percentage binding to CPP2: 12.1628% and 10.8683% and 17.508%
CPP2; concentration 25000 (unit not given), listed as INS-3001
  18F-NaF percentage binding to CPP2: 16.4031% and 18.0245% and 30.0027%
CPP2; concentration 75000 (unit not given), listed as INS-3001
  18F-NaF percentage binding to CPP2: 21.5957% and 22.2508% and 37.2218%
CPP2; concentration 250000 (unit not given), listed as INS-3001
  18F-NaF percentage binding to CPP2: 17.9597% and 19.9827% and 35.4457%
CPP2; concentration 750000 (unit not given), replicates Fig. 2c, listed as INS-3001
  18F-NaF percentage binding to CPP2: 28.6563% and 25.7698% and 36.7738%
CPPs; added to CPP1s at a final concentration of 30 µM
  CPP particle growth (DLS): stabilized particle growth
[1]; [3]
  viability at 5 days, 0.01 µM: 65.9%
[1]; 0.1 µM in high-CaP medium
  viability at 5 days, 0.1 µM: 72.3%
[1]
  viability at 5 days, 10 µM: 71.1%
  viability at 5 days, 100 µM: 83.5%
Primary human VSMCs; [3]
  VSMC viability (MTS), % of medium control: 53.4% and 66.46%
Primary human VSMCs; 0.1 µM in high-CaP medium
  VSMC viability (MTS), % of medium control: 53.2% and 65.81%
Primary human VSMCs; 1 µM in high-CaP medium
  VSMC viability (MTS), % of medium control: 67.8% and 94.42% and 93.48%
Primary human VSMCs; 10 µM in high-CaP medium
  VSMC viability (MTS), % of medium control: 90.2% and 89.04%
Primary human VSMCs; 100 µM in high-CaP medium
  VSMC viability (MTS), % of medium control: 91.5% and 93.79%
Primary human VSMCs; 0.01 and 0.1 µM
  cell viability vs high-CaP medium control: slightly decreased
[2]
  ΔT50 after 4.5 h vs 0 h incubation in enzymatically active human serum: -10 min and 0 min and 51 min and 10 min

## O=P(O)(O)O[C@H]1[C@H](OP(=O)(O)O)[C@@H](OP(=O)(O)O)[C@H](OP(=O)(O)O)[C@@H](OP(=O)(O)O)[C@H]1OP(=O)(O)O [IP6, myo-Inositol hexakisphosphate]
CPP2
  IC50: 3960 nM
CPP2; concentration 0.75 (unit not given)
  18F-NaF percentage binding to CPP2: 94.1339% and 121.154% and 102.128%
CPP2; concentration 2.5 (unit not given)
  18F-NaF percentage binding to CPP2: 93.0288% and 114.326% and 101.486%
CPP2; concentration 7.5 (unit not given)
  18F-NaF percentage binding to CPP2: 92.4582% and 110.79% and 97.129%
CPP2; concentration 25 (unit not given)
  18F-NaF percentage binding to CPP2: 95.6995% and 114.564% and 112.333%
CPP2; concentration 75 (unit not given)
  18F-NaF percentage binding to CPP2: 85.0945% and 107.18% and 113.212%
CPP2; concentration 250 (unit not given)
  18F-NaF percentage binding to CPP2: 87.0585% and 108.409% and 103.034%
CPP2; concentration 750 (unit not given)
  18F-NaF percentage binding to CPP2: 87.2718% and 107.684% and 96.5293%
CPP2; concentration 1750 (unit not given)
  18F-NaF percentage binding to CPP2: 100.593% and 62.29% and 66.5713%
CPP2; concentration 2500 (unit not given)
  18F-NaF percentage binding to CPP2: 85.021% and 85.5383% and 72.51%
CPP2; concentration 7500 (unit not given)
  18F-NaF percentage binding to CPP2: 76.4111% and 59.8209% and 66.7993%
CPP2; concentration 25000 (unit not given)
  18F-NaF percentage binding to CPP2: 66.3738% and 68.2115% and 51.6692%
CPP2; concentration 75000 (unit not given)
  18F-NaF percentage binding to CPP2: 48.1457% and 55.4993% and 51.2901%
CPP2; concentration 250000 (unit not given)
  18F-NaF percentage binding to CPP2: 52.9543% and 43.7782% and 27.6001%
CPP2; concentration 750000 (unit not given), replicates Fig. 2c
  18F-NaF percentage binding to CPP2: 50.6666% and 38.054% and 33.4917%
CPPs; [4]
  Dh: 88.6 and 105.8 and 120.4
  PDI: 0.387 and 0.354 and 0.351
CPPs; Supl.Fig.4 panel b, time 3
  Dh: 117.9 and 117.1 and 132.1
  PDI: 0.358 and 0.359
CPPs; Supl.Fig.4 panel b, time 5
  Dh: 120.1 and 126.7 and 139.4
  PDI: 0.352 and 0.371 and 0.353
CPPs; Supl.Fig.4 panel d, time 1
  Dh: 134.2 and 137.5 and 124.1
  PDI: 0.243 and 0.215 and 0.244
CPPs; Supl.Fig.4 panel d, time 3
  PDI: 0.263 and 0.405 and 0.247
CPPs; Supl.Fig.4 panel d, time 5
  Dh: 829.4 and 949 and 968.9
  PDI: 0.375 and 0.401 and 0.371
CPPs; Supl.Fig.4 panel e, time 1
  Dh: 121.9 and 131.6 and 127.5
  PDI: 0.239 and 0.253 and 0.225
CPPs; Supl.Fig.4 panel e, time 3
  Dh: 917.4 and 1163.2 and 967.1
  PDI: 0.279 and 0.365 and 0.211
CPPs; Supl.Fig.4 panel e, time 5
  Dh: 1239.9 and 912.5 and 1030.4
  PDI: 0.335 and 0.413 and 0.307
CPPs; Supl.Fig.4 panel f, time 1
  Dh: 151.1 and 134.7 and 128.6
  PDI: 0.231 and 0.246 and 0.242
CPPs; Supl.Fig.4 panel f, time 3
  Dh: 1215.5 and 1246.8 and 894.9
CPPs; Supl.Fig.4 panel f, time 5
  Dh: 938.5 and 1174.7 and 1102.1
  PDI: 0.341 and 0.349 and 0.237
CPPs; Supl.Fig.4 panel g, time 1
  Dh: 161.6 and 144.6 and 111.2
  PDI: 0.205 and 0.233 and 0.237
CPPs; Supl.Fig.4 panel g, time 3
  PDI: 0.21 and 0.2 and 0.256
CPPs; Supl.Fig.4 panel g, time 5
  PDI: 0.256 and 0.391 and 0.263
CPPs; Supl.Fig.4 panel h, time 1
  Dh: 140.9 and 155.6 and 124.7
  PDI: 0.242 and 0.211 and 0.261
CPPs; Supl.Fig.4 panel h, time 3
  PDI: 0.224 and 0.271 and 0.403
CPPs; Supl.Fig.4 panel h, time 5
  Dh: 698.6 and 1132.6 and 867.3
  PDI: 0.295 and 0.332 and 0.35
CPPs; Supl.Fig.4 panel i, time 1
  Dh: 144.5 and 156.7 and 136.9
  PDI: 0.23 and 0.222 and 0.25
CPPs; Supl.Fig.4 panel i, time 3
  Dh: 161.1 and 174.2 and 140.3
  PDI: 0.256 and 0.273 and 0.247
CPPs; Supl.Fig.4 panel i, time 5
  Dh: 832.1 and 1065.7 and 818.8
  PDI: 0.38 and 0.379 and 0.375
[1]; primary human VSMCs, 1 µM in high-CaP medium
  viability at 5 days, 1 µM: 68.8%
[1]; primary human VSMCs
  viability at 5 days, 10 µM: 69.9%
  viability at 5 days, 100 µM: 78.7%
Primary human VSMCs; [3]
  VSMC viability (MTS), % of medium control: 67.31% and 30.78% and 56.19%
Primary human VSMCs; 0.1 µM in high-CaP medium
  VSMC viability (MTS), % of medium control: 69.48% and 36.65% and 58.54%
Primary human VSMCs; 1 µM in high-CaP medium
  VSMC viability (MTS), % of medium control: 54.02% and 63.76%
Primary human VSMCs; 10 µM in high-CaP medium
  VSMC viability (MTS), % of medium control: 84.96% and 80.54%
Primary human VSMCs; 100 µM in high-CaP medium
  VSMC viability (MTS), % of medium control: 97.34% and 86.99%
[2]
  ΔT50 after 4.5 h vs 0 h incubation in enzymatically active human serum: -69 min and -77 min and -76 min and -70 min
[2]; mean
  decrease of T50 from baseline after 4.5-h incubation in enzymatically active serum: 73 min

Reference: publication PMC7002685, “Inhibition of vascular calcification by inositol phosphates derivatized with ethylene glycol oligomers” (Nature Communications, 2020)
